Patent US10544143B2, “4-azaindole compounds” (BRISTOL-MYERS SQUIBB COMPANY, priority 2017, dated 2020)
Like-named read-outs stand apart in the source and are kept apart here.

What was measured:
[1] = target: human TLR7 (Homo sapiens (Human), UniProt Q9NYK1); assay: TLR7 inhibition reporter assay (HEK-Blue SEAP); type: cell-based
[2] = target: human TLR8 (Homo sapiens (Human), UniProt Q9NR97); assay: TLR8 inhibition reporter assay (HEK-Blue SEAP); settings: read-out: TLR8 IC50;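 note: SEAP driven by IFN-β minimal promoter carrying NF-κB and AP-1 sites, compounds dosed 0.05 nM to 50 µM for 22 h, inhibition scaled between agonist-plus-DMSO and reference-inhibitor wells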
[3] = target: human TLR9 (Homo sapiens (Human), UniProt Q9NR96); assay: TLR9 inhibition reporter assay (HEK-Blue SEAP); settings: read-out: TLR9 IC50;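 note: SEAP driven by an IFN-β minimal promoter with NF-κB and AP-1 sites, read after 22 h, compounds dosed 0.05 nM–50 µM, inhibition scaled between agonist plus DMSO and reference-inhibitor wells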
[4] = HEK-Blue human TLR7 cells, gardiquimod 7.5 μM
[5] = HEK-Blue human TLR8 cells, R848 15.9 μM
[6] = HEK-Blue human TLR9 cells, ODN2006 5 nM
[7] = HEK-Blue cells overexpressing human TLR7, gardiquimod 7.5 μM stimulation, SEAP reporter
[8] = HEK-Blue cells overexpressing human TLR8, R848 15.9 μM stimulation, SEAP reporter
[9] = HEK-Blue cells overexpressing human TLR9, ODN2006 5 nM stimulation, SEAP reporter
[10] = HEK-Blue cells overexpressing human TLR7, SEAP reporter, gardiquimod 7.5 μM
[11] = HEK-Blue cells overexpressing human TLR8, SEAP reporter, R848 15.9 μM
[12] = HEK-Blue cells overexpressing human TLR9, SEAP reporter, ODN2006 5 nM

Chain of human TLR7 (Q9NYK1 27-1049): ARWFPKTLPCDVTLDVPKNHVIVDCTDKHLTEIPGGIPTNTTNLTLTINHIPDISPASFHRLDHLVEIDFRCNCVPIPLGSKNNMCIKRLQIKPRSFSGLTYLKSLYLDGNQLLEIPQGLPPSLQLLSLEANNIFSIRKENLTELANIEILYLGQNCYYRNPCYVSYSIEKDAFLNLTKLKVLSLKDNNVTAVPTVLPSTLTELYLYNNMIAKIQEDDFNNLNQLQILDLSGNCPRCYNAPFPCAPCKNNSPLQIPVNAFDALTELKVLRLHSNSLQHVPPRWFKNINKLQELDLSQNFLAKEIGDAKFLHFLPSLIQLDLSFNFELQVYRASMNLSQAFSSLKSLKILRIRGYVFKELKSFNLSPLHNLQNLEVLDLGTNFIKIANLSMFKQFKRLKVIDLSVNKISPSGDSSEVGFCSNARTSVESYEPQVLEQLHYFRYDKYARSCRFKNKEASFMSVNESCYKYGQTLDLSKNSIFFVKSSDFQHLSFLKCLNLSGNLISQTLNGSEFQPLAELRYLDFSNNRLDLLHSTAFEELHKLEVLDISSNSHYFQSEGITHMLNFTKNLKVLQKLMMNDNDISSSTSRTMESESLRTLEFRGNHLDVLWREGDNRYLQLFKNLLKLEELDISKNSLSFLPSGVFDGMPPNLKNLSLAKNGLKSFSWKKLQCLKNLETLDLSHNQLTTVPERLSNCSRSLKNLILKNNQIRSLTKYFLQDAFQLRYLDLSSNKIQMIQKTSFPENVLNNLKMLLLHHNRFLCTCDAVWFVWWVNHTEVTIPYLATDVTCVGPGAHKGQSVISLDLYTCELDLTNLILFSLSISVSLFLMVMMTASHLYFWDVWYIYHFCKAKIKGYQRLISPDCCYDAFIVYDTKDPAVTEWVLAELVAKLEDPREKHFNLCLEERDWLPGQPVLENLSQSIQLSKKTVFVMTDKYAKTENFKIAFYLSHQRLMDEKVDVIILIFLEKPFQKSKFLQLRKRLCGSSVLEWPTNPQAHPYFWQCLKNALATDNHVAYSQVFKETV
Chain of human TLR8 (Q9NR97 27-1041): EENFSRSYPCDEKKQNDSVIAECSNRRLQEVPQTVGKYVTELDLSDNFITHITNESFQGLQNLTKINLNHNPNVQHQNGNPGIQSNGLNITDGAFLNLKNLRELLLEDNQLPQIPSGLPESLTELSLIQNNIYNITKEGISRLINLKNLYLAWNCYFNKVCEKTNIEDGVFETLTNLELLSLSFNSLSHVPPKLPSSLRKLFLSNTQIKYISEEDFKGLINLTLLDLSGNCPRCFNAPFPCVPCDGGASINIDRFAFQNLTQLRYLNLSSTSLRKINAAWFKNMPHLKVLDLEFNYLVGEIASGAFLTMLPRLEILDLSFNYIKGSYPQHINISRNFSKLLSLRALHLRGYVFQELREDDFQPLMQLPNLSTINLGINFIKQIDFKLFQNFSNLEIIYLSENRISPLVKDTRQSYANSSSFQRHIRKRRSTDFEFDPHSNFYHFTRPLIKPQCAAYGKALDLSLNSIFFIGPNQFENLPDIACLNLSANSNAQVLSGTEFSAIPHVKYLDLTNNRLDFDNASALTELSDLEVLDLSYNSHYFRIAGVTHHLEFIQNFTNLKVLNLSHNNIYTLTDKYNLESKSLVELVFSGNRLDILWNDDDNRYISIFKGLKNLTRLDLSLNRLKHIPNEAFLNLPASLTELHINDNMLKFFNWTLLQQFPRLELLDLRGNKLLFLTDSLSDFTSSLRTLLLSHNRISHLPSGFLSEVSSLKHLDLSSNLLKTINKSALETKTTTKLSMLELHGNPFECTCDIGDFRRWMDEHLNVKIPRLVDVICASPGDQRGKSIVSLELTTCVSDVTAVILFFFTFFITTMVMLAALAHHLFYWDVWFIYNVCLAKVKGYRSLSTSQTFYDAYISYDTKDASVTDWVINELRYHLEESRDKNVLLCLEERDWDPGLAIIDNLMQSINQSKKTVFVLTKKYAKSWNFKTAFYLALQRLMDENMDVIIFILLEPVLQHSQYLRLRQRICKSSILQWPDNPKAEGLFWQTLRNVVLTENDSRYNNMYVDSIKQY
Chain of human TLR9 (Q9NR96 26-1032): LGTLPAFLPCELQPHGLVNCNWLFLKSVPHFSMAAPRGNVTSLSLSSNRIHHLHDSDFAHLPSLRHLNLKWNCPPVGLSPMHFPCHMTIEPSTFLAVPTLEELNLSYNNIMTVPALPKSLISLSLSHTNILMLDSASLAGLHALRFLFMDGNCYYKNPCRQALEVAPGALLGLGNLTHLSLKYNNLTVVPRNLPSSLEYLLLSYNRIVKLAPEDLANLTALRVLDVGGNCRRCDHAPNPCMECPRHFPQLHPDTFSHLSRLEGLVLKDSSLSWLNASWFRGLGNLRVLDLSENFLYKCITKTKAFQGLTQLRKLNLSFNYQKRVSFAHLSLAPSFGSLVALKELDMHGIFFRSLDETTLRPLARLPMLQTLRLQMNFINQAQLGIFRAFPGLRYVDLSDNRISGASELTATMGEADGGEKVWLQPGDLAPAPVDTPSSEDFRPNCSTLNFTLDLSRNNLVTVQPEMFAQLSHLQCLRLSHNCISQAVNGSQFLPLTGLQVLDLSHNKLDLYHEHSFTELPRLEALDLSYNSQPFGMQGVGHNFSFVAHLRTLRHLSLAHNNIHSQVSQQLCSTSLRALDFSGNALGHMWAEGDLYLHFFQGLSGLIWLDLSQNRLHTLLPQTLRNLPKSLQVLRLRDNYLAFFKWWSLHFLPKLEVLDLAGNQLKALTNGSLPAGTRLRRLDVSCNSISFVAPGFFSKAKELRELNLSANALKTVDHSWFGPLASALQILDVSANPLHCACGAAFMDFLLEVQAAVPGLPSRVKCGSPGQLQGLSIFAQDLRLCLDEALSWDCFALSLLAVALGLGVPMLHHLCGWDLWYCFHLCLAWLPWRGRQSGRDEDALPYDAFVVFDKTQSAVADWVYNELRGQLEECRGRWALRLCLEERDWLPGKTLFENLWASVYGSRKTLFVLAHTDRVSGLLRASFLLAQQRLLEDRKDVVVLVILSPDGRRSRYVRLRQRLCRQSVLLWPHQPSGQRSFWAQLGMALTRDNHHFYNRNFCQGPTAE

Row | Structure (SMILES) | IC50 [1, 7] | IC50 [2, 8] | IC50 [3, 9] | IC50 [1, 10] | IC50 [2, 11] | IC50 [3, 12] | other results
1 | Cc1c(-c2[nH]c3ccc(N4CCN(C(=O)CN5CCCC5)[C@@H](C)C4)nc3c2C(C)C)cn2ncnc2c1C [Example 899] | – | – | – | – | – | – | IC50 [1, 4]: 1 nM; IC50 [2, 5]: 1.7 nM; IC50 [3, 6]: 9780 nM
2 | CC(C)c1c(-c2cc(CO)c3ncnn3c2)[nH]c2ccc(C3CCC(N(C)Cc4ccc(F)cc4)CC3)nc12 (stereo not drawn) [Example 306] | 13 nM | 61 nM | 10100 nM | – | – | – | –
3 | Cc1c(-c2[nH]c3ccc(C4CCC(NCC5(S(C)(=O)=O)CC5)CC4)nc3c2C(C)C)cn2ncnc2c1C (stereo not drawn) [Example 419] | – | – | – | 4.1 nM | 2.5 nM | 1740 nM | –
4 | CCN(CC(=O)N(C)C)C1CCC(c2ccc3[nH]c(-c4cn5ncnc5c(C)c4C)c(C(C)C)c3n2)CC1 (stereo not drawn) [Example 467] | – | – | – | 1.2 nM | 3.5 nM | 413 nM | –
5 | CCCN1CCC(COc2ccc3[nH]c(-c4cc(OC)c5ncnn5c4)c(C(C)C)c3n2)CC1 [Example 606, 6-(3-isopropyl-5-((1-propylpiperidin-4-yl)methoxy)-1H-pyrrolo[3,2-b]pyridin-2-yl)-8-methoxy-[1,2,4]triazolo[1,5-a]pyridine] | – | – | – | 2.3 nM | 3.9 nM | 1710 nM | –
6 | COc1cc(-c2[nH]c3ccc(C4CCC(N5CC6(CCO6)C5)CC4)nc3c2C(C)C)cn2ncnc12 (stereo not drawn) [Example 1075] | – | – | – | – | – | – | IC50 [1, 4]: 1.8 nM; IC50 [2, 5]: 11 nM; IC50 [3, 6]: 3350 nM
7 | COc1cc(-c2[nH]c3ccc(OC4CCN(C)CC4)nc3c2C(C)C)cn2ncnc12 [Example 600, 6-(3-isopropyl-5-((1-methylpiperidin-4-yl)oxy)-1H-pyrrolo[3,2-b]pyridin-2-yl)-8-methoxy-[1,2,4]triazolo[1,5-a]pyridine] | – | – | – | 0.75 nM | 6.2 nM | 2050 nM | –
8 | CC(C)c1c(-c2cn(C)c3ncccc23)[nH]c2ccc(N3CCC(N(CC(=O)N(C)C)CC(=O)N(C)C)CC3)nc12 [Example 54] | 2.9 nM | 2.8 nM | 10400 nM | – | – | – | –
9 | Cc1c(-c2[nH]c3ccc(C4CCC(NCc5c[nH]nn5)CC4)nc3c2C(C)C)cn2ncnc2c1C (stereo not drawn) [Example 412] | – | – | – | 2.2 nM | 2.1 nM | 727 nM | –
10 | Cc1c(-c2[nH]c3ccc(N4CCN(C)CC4=O)nc3c2C(C)C)cn2ncnc2c1C [Example 142] | 107 nM | 45 nM | > 50000 nM | – | – | – | –
11 | COc1cc(-c2[nH]c3ccc(N4CCN(C(=O)CCN(C)C)CC4)nc3c2C(C)C)cn2ncnc12 [Example 99] | 0.51 nM | 2.9 nM | 4300 nM | – | – | – | –
12 | COc1cc(-c2[nH]c3ccc(OCC4CN(C(C)C)C4)nc3c2C(C)C)cn2ncnc12 [Example 592, 6-(3-isopropyl-5-((1-isopropylazetidin-3-yl)methoxy)-1H-pyrrolo[3,2-b]pyridin-2-yl)-8-methoxy-[1,2,4]triazolo[1,5-a]pyridine] | – | – | – | 2.9 nM | 7.4 nM | 2240 nM | –
13 | COc1cc(-c2[nH]c3cc(F)c(C4CCC(NC5COC5)CC4)nc3c2C(C)C)cn2ncnc12 (stereo not drawn) [Example 345] | 0.21 nM | 0.68 nM | 1680 nM | – | – | – | –
14 | COc1cc(-c2[nH]c3ccc(C4CCN(C5COC5)CC4)nc3c2C(C)C)cn2ncnc12 [Example 535] | – | – | – | 2 nM | 8.6 nM | 5720 nM | –
15 | Cc1c(-c2[nH]c3ccc(C4CC5(C4)CN(CCS(C)(=O)=O)C5)nc3c2C(C)C)cn2ncnc2c1C [Example 1026] | – | – | – | – | – | – | IC50 [1, 4]: 4.5 nM; IC50 [2, 5]: 6.3 nM; IC50 [3, 6]: 14500 nM
16 | Cc1cc(-c2[nH]c3ccc(-c4cnn(CCN5CCOCC5)c4)nc3c2C(C)C)cn2ncnc12 [Example 736] | – | – | – | 631 nM | 269 nM | > 50000 nM | –
17 | COc1cc(-c2[nH]c3ccc(N4CCN(CCC(=O)N(C)C)CC4)nc3c2C(C)C)cn2ncnc12 [Example 136] | 5.7 nM | 0.79 nM | 8220 nM | – | – | – | –
18 | Cc1c(-c2[nH]c3ccc(C4CCC(N(C)C)CC4)nc3c2C(C)C)cn2ncnc2c1C (stereo not drawn) [Example 355] | 2.6 nM | 10 nM | 4500 nM | – | – | – | –
19 | Cc1c(-c2[nH]c3ccc(C4CCC(N(C)C5COC5)CC4)nc3c2C(C)C)cn2ncnc2c1C (stereo not drawn) [Example 401] | – | – | – | 5.7 nM | 6.4 nM | 5720 nM | –

Row | Structure (SMILES) | IC50 [1, 7] | IC50 [2, 8] | IC50 [3, 9] | IC50 [1, 10] | IC50 [2, 11] | IC50 [3, 12] | other results
20 | COc1cc(-c2[nH]c3cc(C)c(C(=O)N4CCN(C(C)=O)CC4)nc3c2C(C)C)cn2ncnc12 [Example 733] | – | – | – | 53 nM | 1010 nM | > 50000 nM | –
21 | COc1cc(-c2[nH]c3ccc(C4CCC(NC5CCOCC5)C4)nc3c2C(C)C)cn2ncnc12 (stereo not drawn) [Example 707] | – | – | – | 1.5 nM | 5.3 nM | 1410 nM | –
22 | COc1cc(-c2[nH]c3ccc(C4CCN(CCS(C)(=O)=O)CC4)nc3c2C(C)C)cn2ncnc12 [Example 554] | – | – | – | 1.5 nM | 2.5 nM | 2860 nM | –
23 | Cc1c(-c2[nH]c3ccc(C4CC(NCCS(C)(=O)=O)C4)nc3c2C(C)C)cn2ncnc2c1C (stereo not drawn) [Example 624] | – | – | – | 3 nM | 2 nM | 2570 nM | –
24 | Cc1c(-c2[nH]c3ccc(N4CCC(NC5CCC5)CC4)nc3c2C(C)C)cn2ncnc2c1C [Example 57] | 7.4 nM | 1.3 nM | 5070 nM | – | – | – | –
25 | Cc1c(-c2[nH]c3ccc(C4CCN(C(=O)CN(C)C)CC4)nc3c2C(C)C)cn(C)c(=O)c1Cl [Example 570] | – | – | – | 10 nM | 57 nM | 143 nM | –
26 | COc1cc(-c2[nH]c3ccc(C4CC(N(C)CCS(C)(=O)=O)C4)nc3c2C(C)C)cn2ncnc12 (stereo not drawn) [Example 640] | – | – | – | 4.9 nM | 4.9 nM | 13500 nM | –
27 | CCN(C)CC(=O)N1CCN(c2ccc3[nH]c(-c4cn5ncnc5c(C)c4C)c(C(C)C)c3n2)C[C@@H]1C [Example 897] | – | – | – | – | – | – | IC50 [1, 4]: 0.86 nM; IC50 [2, 5]: 1.5 nM; IC50 [3, 6]: 12000 nM
28 | Cc1c(-c2[nH]c3ccc(N4C[C@H](C)N(CC(N)=O)[C@@H](C)C4)nc3c2C(C)C)cn2ncnc2c1C [Example 759] | – | – | – | 3.8 nM | 14 nM | 38200 nM | –
29 | Cc1cc(-c2[nH]c3ccc(C4CCNCC4)nc3c2C(C)C)nn(C)c1=O [Example 514] | – | – | – | 38 nM | 44 nM | 7110 nM | –
30 | Cc1c(-c2[nH]c3ccc(C4CCC(N5CCC[C@@H]5CO)CC4)nc3c2C(C)C)cn2ncnc2c1C (stereo partly drawn) [Example 372] | 3.2 nM | 7.6 nM | 1460 nM | – | – | – | –
31 | Cc1c(-c2[nH]c3ccc(N4CCCN(CC(=O)N(C)C)CC4)nc3c2C(C)C)cn2ncnc2c1C [Example 163] | 9.7 nM | 5 nM | 24800 nM | – | – | – | –
32 | Cc1c(-c2[nH]c3ccc(N4[C@@H]5CC[C@H]4CN(C(=O)CN(C)C(C)(C)C)C5)nc3c2C(C)C)cn2ncnc2c1C [Example 924] | – | – | – | – | – | – | IC50 [1, 4]: 1.7 nM; IC50 [2, 5]: 4.9 nM; IC50 [3, 6]: 7230 nM
33 | Cc1c(-c2[nH]c3ccc(N4C[C@@H](C)N(C(=O)CCN5CCC(F)C5)C[C@@H]4C)nc3c2C(C)C)cn2ncnc2c1C (stereo partly drawn) [Example 909] | – | – | – | – | – | – | IC50 [1, 4]: 0.54 nM; IC50 [2, 5]: 0.91 nM; IC50 [3, 6]: 6710 nM
34 | CC(C)c1c(-c2cn(C)c3ncccc23)[nH]c2ccc(C3CCC(NCC4(S(C)(=O)=O)CC4)CC3)nc12 (stereo not drawn) [Example 238] | 0.71 nM | 0.97 nM | 297 nM | – | – | – | –
35 | Cc1c(-c2[nH]c3ccc(N4CCN(C(=O)CN5CC6(CCOC6)C5)CC4)nc3c2C(C)C)cn2ncnc2c1C [Example 956] | – | – | – | – | – | – | IC50 [1, 4]: 1 nM; IC50 [2, 5]: 1.9 nM; IC50 [3, 6]: 9650 nM
36 | Cc1c(-c2[nH]c3ccc(C4CCC(NCc5cnco5)CC4)nc3c2C(C)C)cn2ncnc2c1C (stereo not drawn) [Example 416] | – | – | – | […] | 1.2 nM | 1620 nM | –
37 | Cc1c(-c2[nH]c3ccc(N4CCCC(NCC5(S(C)(=O)=O)CC5)C4)nc3c2C(C)C)cn2ncnc2c1C (stereo not drawn) [Example 87] | 3.5 nM | 0.58 nM | > 50000 nM | – | – | – | –
38 | CNC1CN(c2ccc3[nH]c(-c4cn5ncnc5c(C)c4C)c(C(C)C)c3n2)C1 [Example 23] | > 3120 nM | > 3120 nM | > 50000 nM | – | – | – | –
